Source: patent US20260256923A1, “NEW RECRUITMENT ELEMENT OF UBIQUITIN LIGASE AND USE THEREOF” (SHENZHEN LINGGENE BIOTECH CO., LTD., priority 2023, published 2026)

Key:
NCL = NCL (Homo sapiens, UniProt P19338); assay: Biotin-oligonucleotide pull-down from HeLa cell lysate, western blot (NCL); format: binding; parameters: HeLa cervical cancer cells were lysed with an IP lysis solution; endogenous in cells; host or cells: HeLa cell lysate; settings: 5′-biotin label, 0 nM-20 μM
Method: HeLa cervical cancer cells were lysed with an IP lysis solution (purchased from Thermo Scientific, Cat. No.: 87788) and then incubated with a CRO (cytosine-rich oligonucleotide, negative control, SEQ ID NO: 13), AS1411, or iSN04 labeled by biotin at the 5′ end at different concentrations (0 nM, 200 nM, 500 nM, 1 μM, 5 μM, 10 μM, and 20 μM) at 4° C. for 6h. Subsequently, streptavidin agarose gel beads (purchased from cytiva, Cat. No.: 17511301) were added, and the mixture was further incubated at 4° C. overnight. After the bound biotin-labeled CRO, AS411, or iSN04 and its captured proteins on the gel beads were washed multiple times with an IP lysis buffer (purchased from Thermo Scientific, Cat. No.: 87788), an SDS-PAGE protein loading buffer (purchased from Beyotime, Cat. No.: P0015) was added, and the mixture was heated to 100° C. and held for 10 min. After centrifugation, the supernatant was collected as a pull-down product. The pull-down product was detected by western blot assay.

MDM2 = biological target: T1, MDM2 (Homo sapiens, UniProt P19338+Q00987); assay: MDM2 protein degradation in A549 non-small cell lung cancer cells, western blot; format: cell-based
T1 construct: endogenous in cells; host or cells: A549
Method: (1) A549 non-small cell lung cancer cells were incubated with 200 nM AS1411-VH032, and corresponding cell samples were collected at time gradients of 0 h, 3 h, 6 h, 9 h, 12 h, and 24 h for protein extraction and subsequent western blot assay to detect protein degradation.
(2) A549 non-small cell lung cancer cells were incubated with AS1411-VH032 at concentrations of 0 nM, 50 nM, 100 nM, 150 nM, 200 nM, and 250 nM. After 3 h, cell samples were collected for protein extraction and subsequent western blot assay to detect protein degradation.
(3) A549 non-small cell lung cancer cells were incubated with 200 nM AS1411, VH032, AS1411-VH032, or AS1411+VH032. After 3 h, cell samples were collected for protein extraction and subsequent western blot assay to detect protein degradation.
(4) A549 non-small cell lung cancer cells were incubated with 200 nM AS1411-VH032 for 3 h, and proteasome inhibitor MG132 was added. Cell samples were collected for protein extraction and subsequent western blot assay.
(5) A549 non-small cell lung cancer cells were transfected with si-NC or si-NCL and subsequently incubated with 200 nM AS1411-VH032 for 3 h. Cell samples were collected for protein extraction and subsequent western blot assay.
(1) A549 non-small cell lung cancer cells were incubated with 1000 nM AS1411-AS1411, and corresponding cell samples were collected at time gradients of 0 h, 3 h, 6 h, 9 h, 12 h, and 24 h for protein extraction and subsequent western blot assay to detect protein degradation.
(2) A549 non-small cell lung cancer cells were incubated with AS1411-AS1411 at concentrations of 0 nM, 50 nM, 100 nM, 250 nM, 500 nM, and 1000 nM. After 12 h, cell samples were collected for protein extraction and subsequent western blot assay to detect protein degradation.
(3) A549 non-small cell lung cancer cells were incubated with 1000 nM AS1411, AS1411-AS1411, or AS1411+AS1411. After 12 h, cell samples were collected for protein extraction and subsequent western blot assay to detect protein degradation. […]

[1] = biological target: T2, interaction between NCL and MDM2 (Homo sapiens, UniProt P19338); assay: Co-immunoprecipitation of NCL and MDM2 from HeLa cell lysate, western blot; format: binding; settings: 0-20 μM, 4° C. 6 h, IP with antibody against NCL
T2 construct: HeLa cervical cancer cells were lysed with an IP lysis solution; endogenous in cells; host or cells: HeLa cell lysate
Method: Co-immunoprecipitation (Co-IP) is a classical method for the study of protein interactions based on the specific interaction between an antibody and an antigen. It is an effective method to determine the physiological interaction between two proteins in intact cells.
HeLa cervical cancer cells were lysed with an IP lysis solution (purchased from Thermo Scientific, Cat. No.: 87788) and then incubated with AS 1411 or iSN04 at different concentrations (0 μM, 1 μM, 5 μM, 10 μM, and 20 μM) at 4° C. for 6 h. Subsequently, […] of an antibody against NCL was added, and the mixture was further incubated at 4° C. overnight. Protein A/G magnetic beads (purchased from Thermo Scientific, Cat. No.: 88802) were added, and the mixture was incubated with rotation at room temperature for 1.5 h. The bound NCL and its interacting proteins on the magnetic beads were washed with an IP lysis buffer (purchased from Thermo Scientific, Cat. No.: 87788), and an SDS-PAGE protein loading buffer (purchased from Beyotime, Cat. No.: P0015) was added. The mixture was heated to 100° C. and held for 10 min. The magnetic beads were adsorbed on a magnetic rack, and the supernatant was transferred into a new tube. Subsequently, western blot assay was performed to detect whether NCL bound to MDM2 and whether the binding was affected by AS 1411 or iSN04. […]

T1 sequence (Q00987 whole entry): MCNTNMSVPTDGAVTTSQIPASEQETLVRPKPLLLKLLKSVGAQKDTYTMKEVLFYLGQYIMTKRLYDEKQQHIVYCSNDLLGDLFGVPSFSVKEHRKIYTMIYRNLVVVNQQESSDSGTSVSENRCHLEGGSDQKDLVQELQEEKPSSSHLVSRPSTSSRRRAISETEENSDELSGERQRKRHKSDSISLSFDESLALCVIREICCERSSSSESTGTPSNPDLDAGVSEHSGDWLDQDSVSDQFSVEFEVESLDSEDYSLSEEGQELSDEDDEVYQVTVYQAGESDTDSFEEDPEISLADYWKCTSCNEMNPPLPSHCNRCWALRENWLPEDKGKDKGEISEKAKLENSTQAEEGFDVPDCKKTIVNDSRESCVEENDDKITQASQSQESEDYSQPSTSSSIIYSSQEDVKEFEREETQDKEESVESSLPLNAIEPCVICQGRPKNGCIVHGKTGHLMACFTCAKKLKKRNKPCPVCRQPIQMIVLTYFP
T1 sequence (P19338 2-710 limits assumed): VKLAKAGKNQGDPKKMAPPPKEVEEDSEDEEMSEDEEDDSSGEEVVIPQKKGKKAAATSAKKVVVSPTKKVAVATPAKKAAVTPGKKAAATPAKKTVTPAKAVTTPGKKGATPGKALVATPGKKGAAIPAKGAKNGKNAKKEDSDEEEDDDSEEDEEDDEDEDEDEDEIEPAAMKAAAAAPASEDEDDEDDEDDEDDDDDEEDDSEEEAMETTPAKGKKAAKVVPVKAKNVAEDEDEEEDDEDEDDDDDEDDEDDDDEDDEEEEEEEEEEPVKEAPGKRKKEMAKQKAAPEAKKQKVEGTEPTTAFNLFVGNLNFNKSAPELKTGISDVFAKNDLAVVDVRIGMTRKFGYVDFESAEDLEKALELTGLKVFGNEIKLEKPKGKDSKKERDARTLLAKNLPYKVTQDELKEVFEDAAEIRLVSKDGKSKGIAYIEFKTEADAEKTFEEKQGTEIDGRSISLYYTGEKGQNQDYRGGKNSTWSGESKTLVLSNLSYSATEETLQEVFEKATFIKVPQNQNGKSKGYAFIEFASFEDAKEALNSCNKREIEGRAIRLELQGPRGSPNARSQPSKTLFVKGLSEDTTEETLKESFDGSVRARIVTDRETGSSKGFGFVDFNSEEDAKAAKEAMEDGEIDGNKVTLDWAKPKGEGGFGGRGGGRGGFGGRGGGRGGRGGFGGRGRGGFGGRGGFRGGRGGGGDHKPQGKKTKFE
Sequence of NCL (P19338 whole entry): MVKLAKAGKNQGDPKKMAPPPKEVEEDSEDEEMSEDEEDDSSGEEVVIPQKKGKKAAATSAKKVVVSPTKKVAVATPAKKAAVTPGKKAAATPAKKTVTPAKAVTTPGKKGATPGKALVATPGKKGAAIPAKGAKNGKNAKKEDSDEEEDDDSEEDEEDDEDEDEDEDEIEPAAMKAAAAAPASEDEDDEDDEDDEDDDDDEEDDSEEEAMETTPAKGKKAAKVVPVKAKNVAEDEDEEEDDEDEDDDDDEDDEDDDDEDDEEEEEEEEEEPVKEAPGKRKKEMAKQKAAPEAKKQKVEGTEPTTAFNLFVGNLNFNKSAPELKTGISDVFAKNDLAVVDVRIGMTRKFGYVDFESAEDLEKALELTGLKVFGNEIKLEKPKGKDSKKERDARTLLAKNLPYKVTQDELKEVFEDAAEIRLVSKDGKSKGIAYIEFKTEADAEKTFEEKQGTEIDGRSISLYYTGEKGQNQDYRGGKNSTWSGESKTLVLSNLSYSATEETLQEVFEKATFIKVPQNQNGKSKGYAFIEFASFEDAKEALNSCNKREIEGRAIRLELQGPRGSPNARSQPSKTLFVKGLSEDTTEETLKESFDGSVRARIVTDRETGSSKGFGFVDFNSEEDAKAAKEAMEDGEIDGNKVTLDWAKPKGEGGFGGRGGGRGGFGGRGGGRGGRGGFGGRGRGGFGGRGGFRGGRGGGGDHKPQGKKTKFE
T2 sequence (P19338 2-710 limits assumed): as the sequence (P19338 2-710 limits assumed) above

AS1411: DNA aptamer, GRO binding NCL, SEQ ID NO: 1: 5′-GGTGGTGGTGGTTGTGGTGGTGGTGG-3′
capture of NCL (NCL): can capture NCL and MDM2 in a concentration-dependent manner | protein level of MDM2 (MDM2; A549, 200 nM, 3 h): neither AS1411, VH032, nor AS1411+VH032 can reduce the protein level of MDM2 | protein level of MDM2 (MDM2; A549, 1000 nM, 12 h): neither AS1411 nor AS1411+AS1411 can reduce the protein level of MDM2 | effect on the interaction between NCL and MDM2 [1]: does not affect the interaction between NCL and MDM2
